# From PMC11627005 (Febs Letters, 2024)
# What was measured:
# Type in all cases: biochemical
# [1] = molecular target: E. coli respiratory complex I (proton-pumping NADH:ubiquinone oxidoreductase, NuoA to NuoN) (Escherichia coli, UniProt P0AFC7+P0AFD4+P33599, P33599:D325A)
# [2] = molecular target: E. coli respiratory complex I (proton-pumping NADH:ubiquinone oxidoreductase, NuoA to NuoN) (Escherichia coli, UniProt P0AFC7+P0AFD4+P33599, P33599:D325Q)
# [3] = molecular target: E. coli respiratory complex I (proton-pumping NADH:ubiquinone oxidoreductase, NuoA to NuoN) (Escherichia coli, UniProt P0AFC7+P0AFD4+P33599, P33599:D325N)
# [4] = molecular target: E. coli respiratory complex I (proton-pumping NADH:ubiquinone oxidoreductase, NuoA to NuoN) (Escherichia coli, UniProt P0AFC7+P0AFD4+P33599)
# [5] = molecular target: E. coli respiratory complex I (proton-pumping NADH:ubiquinone oxidoreductase, NuoA to NuoN) (Escherichia coli, UniProt P0AFC7+P0AFD4+P33599, P33599:D325E)
structure (smiles),measurement,setting,value
C/C=C(\C)[C@H](O)[C@H](C)/C=C(C)/C=C/C/C(C)=C/Cc1nc(OC)c(OC)c(O)c1C [piericidin A],IC50,[1],9.3 ± 0.8 µM
same,IC50,[2],16.9 ± 1.2 µM
same,IC50,[3],17.4 ± 0.6 µM
same,IC50,[4],3.5 ± 0.2 µM
same,IC50,[5],6.2 ± 0.5 µM
